Measured values taken from paper PMC12323621, “Exploring the antimicrobial activity of pantothenamides against uropathogenic Escherichia coli” (Microbiology Spectrum, 2025).
Read-outs that look alike come from different tables or passages of the source.

Tested on: UPEC strain CFT073
Assay: Antimicrobial susceptibility assay, UPEC grown in pooled human urine
Type: cell-based, Escherichia coli
From the text: Unless otherwise noted, all reagents were obtained from commercial sources. BAP, 1, and N5-Pan analogs were synthesized according to previously reported procedures ([31], [53]). Urine was self-collected from adult males and females (not menstruating) between 24 and 57 years old (recruitment was open to donors 18–65 years old), who had not used anti-infectives or cranberry products for at least 7 days prior to collection. The collection protocol was approved by the Johns Hopkins University Institutional Review Boards under IRB study NA_00085130. Informed, written consent was obtained from all participants prior to collection. Urine was collected from at least 7 participants over 14 days, stored at 4°C upon collection, and then pooled, filter-sterilized, and frozen at −20°C. Urine Batch A included five male and three female donors with an average age of 33 years (range: 24–57). Urine Batch B included four male and five female donors with an average age of 26 years (range: 24–43). Samples from two donors (donations made at least 30 days apart) were included in both Batch A and Batch B. Urine Batch C included four male and three female donors with an average age of 27 years (range: 24–36). Urine Batch D included four male and three female donors with an average age of 27 years (range: 25–35). Solid urine agar plates were prepared by supplementing cooled 1.5% (wt/vol) agar with filter-sterilized urine in a 4:1 ratio. Liquid MOPS-glycerol was prepared by adding 10 × 3-(N-morpholino)propanesulfonic acid (MOPS) Buffer (Teknova) to water to a final 1× concentration, 1.32 mM K2HPO4, and 0.4% (vol/vol) glycerol and then filter-sterilizing. Unless otherwise noted, all media were supplemented with freshly prepared 20 µM FeSO4. OD600 analyses were performed on Mettler-Toledo UV5Bio UV/Visible spectrophotometer (Columbus, Ohio, USA). For antimicrobial studies, uropathogenic E. coli strain CFT073 (ATCC: BAA-2503) was provided by Kevin Schwartz from the lab of Rodney Welch. All manipulation of UPEC was conducted in a certified biosafety level 2 (BSL-2) laboratory while using BSL-2-associated safety procedures. Antimicrobial data were collected on a Biotek Epoch 2 microplate reader or a Biotek Synergy Neo 2 microplate reader. For metabolic stability studies, losartan potassium (PHR1602), used as an internal standard, was bought from Millipore Sigma (Burlington, MA). Methanol (A456-4) and acetonitrile (A955-4) were purchased from Fisher Chemical (Pittsburgh, PA). Water (9831-03) was purchased from JT Baker (Philipsburg, NJ). Dimethyl sulfoxide (DMSO)(154938-500mL) was purchased from Sigma Aldrich (St. Louis, MO). Mouse plasma (WT) was purchased from Innovative Research (Novi, MI). Mouse liver microsomes (M1000) were purchased from XenoTech LLC (Kansas City, KS).
All antimicrobial susceptibility assays were conducted as previously described using an aseptic technique with some modification ([7]). Briefly, 3–5 isolated colonies of CFT073 on LB agar or pooled urine agar were inoculated into 3 mL of liquid MOPS-glycerol medium or pooled urine, respectively, and grown overnight with shaking at 37°C. Saturated cultures were diluted 1:50 in fresh medium and grown to an OD600 of 0.4. These exponential phase cultures were then diluted 1:1,000 into fresh medium to yield the experimental inoculum, which was mixed 1:1 with medium containing 1 or N5-Pan analog at twice the desired final concentration in 96-well plates. The final concentration of bacteria in each well was approximately 10^5 CFU/mL in a final volume of 200 µL. The concentration ranges of compounds evaluated in MOPS-glycerol were: 1 (0–312.5 μM), 2 (0–100 μM), 3 (0–500 μM), 4–5 (0–2,000 μM), 6–7 (0–100 μM), and 8–12 (0-2,000 μM). Analogs 1, 6, and 7 were evaluated over a range of 0–4,000 μM in four batches of pooled human urine. The OD600 was monitored for 24 h (MOPS-glycerol) or 16 h (pooled urine) at 37°C with periodic shaking. […]

[1] = Escherichia coli, UPEC CFT073, all urine batches A-D, read-out: MIC across four batches of pooled urine
[2] = Escherichia coli, UPEC CFT073, urine batch A, read-out: MIC in pooled human urine, urine batch A
[3] = Escherichia coli, UPEC CFT073, urine batch B, read-out: MIC in pooled human urine, urine batch B
[4] = Escherichia coli, UPEC CFT073, urine batch C, read-out: MIC in pooled human urine, urine batch C
[5] = Escherichia coli, UPEC CFT073, urine batch D, read-out: MIC in pooled human urine, urine batch D
[6] = UPEC CFT073, urine batch A, read-out: MIC in pooled human urine, urine batch A
[7] = UPEC CFT073, urine batch B, read-out: MIC in pooled human urine, urine batch B

SMILES: CCCCCNC(=O)CCNC(=O)[C@H](O)C(C)(C)CO [compound 1, N-pentylpantothenamide, reference compound]
- MIC [1]: 250 to 1000 µM
- MIC [2]: 1000 µM
- MIC [3]: 250 µM
- MIC [4]: 1000 µM
- MIC [5]: 1000 µM
- MIC [6]: 1000 µM
- MIC [7]: 250 µM

SMILES: CCCCCNC(=O)CNC(=O)[C@H](O)C(C)(C)CO [compound 6, N5-α-pantothenamide]
- MIC [1]: 250 to 1000 µM
- MIC [2]: 1000 µM
- MIC [3]: 250 µM
- MIC [4]: 500 µM
- MIC [5]: 500 µM
- MIC [6]: 1000 µM
- MIC [7]: 250 µM
- fold higher MIC in urine than in MOPS-glycerol (urine MICs vs MIC in MOPS-glycerol): > 40 fold
